Test [1] has as its target T1, rThC (recombinant thrombocorticin, ThC) (unclassified Corticium (in: sponges), UniProt C0HM62).
T1 construct: N-terminal 6xHis-tag (modified pET28), expressed in E. coli BL21(DE3); 131 residues, 14 kDa; homodimer, sugar site at protomer interface
T1 sequence (C0HM62 1-131): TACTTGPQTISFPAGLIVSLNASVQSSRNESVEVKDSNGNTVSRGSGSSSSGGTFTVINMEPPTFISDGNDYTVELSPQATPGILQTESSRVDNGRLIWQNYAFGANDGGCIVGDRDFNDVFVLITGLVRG
Kind of test: inhibition of rThC-induced Ba/F3-HuMpl cell proliferation. The following applies: rThC 1 μg/mL, RPMI-1640 with 10% FBS, 37 °C, 4 days; competes with MPL glycan. Type of test: cell-based.

For another test, the target named is T2, BC2L-C-CTD (Burkholderia cenocepacia, UniProt B4EH86).
T2 construct: gene BCAM0185; C-terminal domain of BC2L-C, N-terminal 6xHis-tag (modified pET28), expressed in E. coli BL21(DE3)
Kind of test: isothermal titration calorimetry. It is filed as binding. The following applies: 20 mM HEPES-NaOH pH 8.0, 200 mM NaCl, 25 °C. From the text: isothermal titration calorimetry on BC2L-C-CTD | BC2L-C-CTD bound only to mannose
(In general: Isothermal titration calorimetry measures the heat released or taken up as one component is titrated into another.)

In test [2] the target is T1, rThC (recombinant thrombocorticin, ThC). Kind of test: isothermal titration calorimetry. It is filed as binding. The following applies: 5 mM CaCl2, 20 mM HEPES-NaOH pH 8.0, 200 mM NaCl, 25 °C; Ca2+-mediated site at dimer interface.
In test [3] the target is human thrombopoietin receptor MPL on Ba/F3-HuMpl cells (human) (UniProt P40238).
In test [4] the target is T3, human thrombopoietin receptor MPL on Ba/F3-HuMpl cells (human, UniProt P40238 26-635).
T3 sequence (looked up): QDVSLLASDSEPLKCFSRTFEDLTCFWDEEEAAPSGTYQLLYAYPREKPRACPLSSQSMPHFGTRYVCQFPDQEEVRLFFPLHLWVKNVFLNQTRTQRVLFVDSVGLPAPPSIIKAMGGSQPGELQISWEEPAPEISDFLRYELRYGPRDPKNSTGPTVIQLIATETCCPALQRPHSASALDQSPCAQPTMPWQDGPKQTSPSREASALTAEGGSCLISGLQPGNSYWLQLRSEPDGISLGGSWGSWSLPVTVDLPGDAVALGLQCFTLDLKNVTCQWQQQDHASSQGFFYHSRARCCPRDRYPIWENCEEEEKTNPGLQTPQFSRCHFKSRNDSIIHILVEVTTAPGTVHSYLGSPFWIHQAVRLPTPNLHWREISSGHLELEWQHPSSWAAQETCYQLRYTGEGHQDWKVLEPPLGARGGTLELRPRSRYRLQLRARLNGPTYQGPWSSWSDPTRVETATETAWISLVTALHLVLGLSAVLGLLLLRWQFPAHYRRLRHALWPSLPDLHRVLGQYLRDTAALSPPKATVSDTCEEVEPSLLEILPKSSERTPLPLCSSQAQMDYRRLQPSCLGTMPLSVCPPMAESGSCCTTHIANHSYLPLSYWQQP
Kind of test: cell-based or functional assay.

Usually IC50 stands for the midpoint of a concentration-inhibition curve. By Kd is commonly meant the free concentration of one partner at which half of the binding sites on the other are occupied at equilibrium, for simple one-to-one binding.

`OC[C@H]1OC(O)[C@@H](O)[C@@H](O)[C@@H]1O` (stereo partly drawn) [D-mannose]: in test [1], the IC50 came out at 6460 µM. Besides, the Kd at BC2L-C-CTD came out at 17.7 ± 0.32 µM. Moreover, the KD in test [2] is recorded as 66.2 × 10 µM.

As to `C[C@@H]1OC(O)[C@@H](O)[C@H](O)[C@@H]1O` (stereo partly drawn) [L-fucose], the IC50 in test [1] amounted to 22.8 µM. Besides, the Kd in test [2] was determined as 4.72 µM. With “PA-IIL (from UniProt Q9HYN5 1-115) (natural protein)”, the proliferation of Ba/F3-HuMpl cells, EC50 in test [3] was 18.1 µg/mL.

B1: N-terminal His-tagged recombinant thrombocorticin (wild type) (natural protein, UniProt C0HM62 1-131, looked up)
chain: TACTTGPQTISFPAGLIVSLNASVQSSRNESVEVKDSNGNTVSRGSGSSSSGGTFTVINMEPPTFISDGNDYTVELSPQATPGILQTESSRVDNGRLIWQNYAFGANDGGCIVGDRDFNDVFVLITGLVRG
For B1, in test [4], the “proliferation of Ba/F3-HuMpl cells, EC50” value came out at 0.26 µg/mL.

Source of the values: PMC9700728 (Nature Communications, 2022).
